As usually defined, the EC50 is the concentration at which the effect is half-maximal. Broadly, the Emax is the greatest response seen or fitted, relative to the assay's reference.

Entries after “also recorded” stand apart in the source; their conditions may differ.

One compound from patent publication US12331051B2 (priority 2021, dated 2025) can be followed below.

Series [1] deals with T1, 5-HT1E (Homo sapiens, UniProt P28566).
T1 construct: expressed in transfected cells; host or cells: HEK-293
T1 sequence (P28566 whole entry): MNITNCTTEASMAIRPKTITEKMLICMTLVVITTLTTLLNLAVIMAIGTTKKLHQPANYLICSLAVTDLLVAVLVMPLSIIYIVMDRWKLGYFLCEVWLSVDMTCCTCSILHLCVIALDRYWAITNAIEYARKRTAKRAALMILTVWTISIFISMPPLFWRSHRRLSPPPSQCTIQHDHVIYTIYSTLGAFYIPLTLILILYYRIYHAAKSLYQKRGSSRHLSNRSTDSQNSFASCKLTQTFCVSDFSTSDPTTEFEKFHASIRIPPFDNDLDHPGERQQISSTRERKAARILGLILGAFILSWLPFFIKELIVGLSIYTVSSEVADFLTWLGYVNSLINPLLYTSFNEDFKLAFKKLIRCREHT
In words: Functional assay (Arrestin). Format: cell-based.

Series [2] can be described thus: Pharmacokinetic study, single IP injection, plasma and brain by LC-MS/MS. Format: in vivo, CD-1 mice. As to conditions: IP 0.75, 2.25 or 6.75 mg/kg, male and female mice. As to the method: A pharmacokinetic (PK) study of the “E559 polymorph” was conducted following a single intraperitoneal (IP) injection in CD-1 mice. PK analysis of the “E559 polymorph” was performed in plasma samples and in brain tissue taken at different time points post injection. Three groups of male mice and three groups of female mice (n=24 per group) were administered “E559” at different doses (0.75, 2.25, or 6.75 mg/kg) by IP injection at time zero. In each dose group, three mice/sex were sacrificed to collect plasma and brain samples at pre-dose, and 0.17, 0.5, 1, 2, 4, 8, and 24 hours post-dose. Levels of the “E559 polymorph” in plasma and brain tissue were assessed by LC-MS/MS method. Briefly, to extract the plasma samples, 200 μL of acetonitrile containing 10 ng/mL LSD-d3 was added to 50 μL of plasma. The mixture was vortexed vigorously, centrifuged (13,000 rpm) for 2 min at 4° C., and then 50 μL of supernatant was combined with 200 μL methanol/water (1:1, v/v) for LC-MS/MS analysis. Brain tissues were weighed and homogenized for ˜1 min in cold acetonitrile at a ratio of 1:1.5 (w/v) brain tissue to extraction solvent. The brain samples were then centrifuged at 13,000 rpm for 2 min at 4° C. and the supernatant was collected for LC-MS/MS analysis. In LC-MS/MS method, isocratic elution was performed on an ACE Excel 5 SuperC18™ column at 25° C., with a run time of 6.5 min. The mobile phase consisted of methanol-water (8:2, v/v) plus 0.1% NH4OH at a flow rate of 0.8 mL/min. The injection volume was 10 μL/sample. […]
The “E559 polymorph” was quantified by selected reaction monitoring of the following mass transitions (2-Br-LSD m/z 403.3→302, LSD-d3 internal standard m/z 327.2→226.1). The quantification of the “E559 polymorph” concentration in samples was achieved by using appropriate calibration standards. […] The pharmacokinetic parameters were determined by the non-compartmental analysis using the validated Phoenix®WinNonlin® version 8.2 software (Certara Inc).

For series [3], the system named is 5-HT1 receptor subtypes: 5-HT1A, 1B, 1D, 1E, and 1F. It counts as cell-based, human. The note with it: FIG. 15, FIG. 16A/B; listed as E559 polymorph.
Series [4] relates to cultured primary rat neurons. In words: Cell viability, Neurite Outgrowth Staining Kit. Format: cell-based. The note with it: DIV 6, all tested concentrations. As to the method: The ability of the “E559 polymorph” to induce neural plasticity was evaluated in vitro. In vitro dendritogenesis and spinogenesis assays were conducted using primary rat embryonic cortical neurons. Briefly, cultured primary cortical neurons (rat) were treated at day in vitro (DIV) 3 for 3 hours with increasing concentrations (1, 10 and 100 nM, 1 and […]) of the “E559 polymorph” and morphological changes in dendritic arbor complexity (dendritogenesis) were assessed at DIV6 by immunofluorescent staining of fixed neurons with microtubule-associated protein 2 (MAP2, a microtubule marker), F-actin (cytoskeletal marker), and phalloidin (actin filament marker) followed by fluorescent microscopy and Sholl analysis of neurons' images. […] The spine density assessments (spinogenesis) were made on DIV 18. The cell viability assessments were made on DIV 6 by using the Neurite Outgrowth Staining Kit which includes fluorescent probes for dead and live neuronal cells. Ketamine was used as a comparator and positive control. Ketamine is known to induce dendritogenesis and its effects on synaptic plasticity are believed to mediate its antidepressant effects (Aguilar-Valles et al., Nature, 2021, 590, p315-319). Representative images of MAP2 stained rat cortical neurons treated with vehicle (no drug control) or with “E559 polymorph” is shown in FIG. 18A.

The target of series [5] is 5-HT6 (Homo sapiens, UniProt P50406). As to the kind of experiment: Functional assay (cAMP). Format: cell-based. The arrangement: expressed in transfected cells; host or cells: HEK-293. The method, then:
Neuro-receptor binding and functional effects of the “E559 polymorph” was examined by analyzing binding affinity [Ki (nM)], functional agonist activity [EC50 (nM)], and functional antagonist activity [IC50 (nM)] against a panel of key receptors in neurophysiological disorders. Binding and functional assays were performed at “E559 polymorph” concentrations of 0.0003, 0.003, 0.01, 0.03, 0.1, 0.3, 1, and 10 μM. In binding assays, cell membrane homogenates, expressing each receptor target, were incubated with the corresponding radio-ligand in absence or presence of several concentration of the “E559 polymorph” compound. The measurement of binding affinity of the “E559 polymorph” is represented in TABLE XIII by Ki (nM) which was calculated as percent inhibition of the binding of a radioactively labeled reference ligand at each receptor. In functional assays the HEK-293 cells expressing each receptor target were suspended in buffer and distribute in microplates and incubated for 30 minutes at room temperature or 37° C. in the presence of buffer alone (basal control), the reference agonist or antagonist, or the “E559 polymorph. Following incubation, the cells were lysed and the appropriate fluorescent probe (Ca2+ flux, cAMP, or IP1) were added for 60 minutes to measure the fluorescence transfer at the appropriate wavelength using a microplate reader. The cellular agonist effect (EC50) was calculated as a percent of control response to a known reference agonist and the cellular antagonist effect (IC50) was calculated as a percent inhibition of control reference agonist response for each receptor.
The functional agonist activity [EC50 (nM), Emax], and functional antagonist activity [IC50 (nM)] of the 5R:8S stereoisomer of the “E559 polymorph” (5R:8S E558) was compared with the “E559 polymorph” (a 5R:8R stereoisomer) at selected serotonin receptors. The assays were performed as described in Example 6.

Chain of 5-HT6 (P50406 whole entry): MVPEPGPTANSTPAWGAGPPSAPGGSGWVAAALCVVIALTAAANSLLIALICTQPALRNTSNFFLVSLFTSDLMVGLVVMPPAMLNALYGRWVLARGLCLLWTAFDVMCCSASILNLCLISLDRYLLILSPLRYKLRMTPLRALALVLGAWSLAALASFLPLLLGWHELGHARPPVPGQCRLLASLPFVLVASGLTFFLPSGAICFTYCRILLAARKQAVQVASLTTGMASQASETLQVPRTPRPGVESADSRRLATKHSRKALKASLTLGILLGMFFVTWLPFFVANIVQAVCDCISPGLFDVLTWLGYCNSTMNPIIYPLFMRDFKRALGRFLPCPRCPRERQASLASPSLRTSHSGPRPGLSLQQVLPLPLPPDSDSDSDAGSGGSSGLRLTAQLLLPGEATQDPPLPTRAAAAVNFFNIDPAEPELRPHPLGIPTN

In series [1], `CCN(CC)C(=O)[C@@H]1C=C2c3cccc4[nH]c(Br)c(c34)C[C@H]2N(C)C1` [E559, (5R, 8R)-2-Bromo-9,10-didehydro-N,N-diethyl-6-methylergoline-8-carboxamide hemi-D-tartrate] registered an EC50 of over 10000 nM. Also, in series [1] (Arrestin, ligand 5-HT, read-out: Functional Assay (agonist) Emax), the Emax amounted to 8.7%. Moreover, in series [2], the “crossing of the blood-brain barrier (brain PK)” value is on record as “can readily cross the blood-brain barrier”; the plasma levels result was “increases in time-dependent and dose-dependent manners”; the “time to appearance in plasma post dose” value came out at 10 min. In series [3], the “functional activity at 5-HT1 receptor subtypes” value was “moderate to potent agonist across all the 5-HT1 receptor subtypes; also recorded: exhibits the greatest potency (agonism) at 5-HT1F and 5-HT1D receptors”. For the same compound, in series [4], the “viability of cultured primary rat neurons (cytotoxic activity)” value is listed as “no cytotoxic activity was observed at all tested concentrations”. Further, the concentration giving a half-maximal response (EC50) in series [5] came to 0.5 nM. Also, the Emax in series [5] (cAMP, ligand 5-HT, read-out: Functional Assay (agonist) Emax) is 80.1%.
